Laboratory results from US5733922A, “Imidazole derivative, pharmaceutically acceptable salt thereof, and anti-ulcer drug including such derivative or salt” (Arax Co., Ltd., priority 1995, dated 1998).

tested on: not listed separately; assay: Single-dose toxicity study; settings: mouse, in vivo, male ddY mice, oral, observed two weeks, read-out: median lethal dose LD50
Protocol: Ten male ddY mice (each having a weight of 22-28 g) were used as specimen animal in a cage kept at a substantially constant temperature of 23°±1° C. and under a substantially constant humidity of 55±5%. The compound prepared in Example 39, that is, 2-(2-dimethylaminobenzylthio)-5,5-dimethylimidazolin-4-thione was used as the specimen drug. This compound was suspended in a 2% solution of polysorbate 80, and the suspension was administered to each specimen mouse, with different doses. […] On the basis of the death percent, lethal dose (LD50) which causes a 50% death was obtained as an index indicative of the single dose toxicity. The obtained median lethal dose LD50 (oral administration) was 2000 mg/kg or more. It was thus confirmed that the median lethal dose LD50 (oral administration) of the compound according to the present invention was sufficiently large, indicating a low degree of toxicity or a high degree of safety.

Row | SMILES | LD50 at 336 h [mg/kg]
1 | CN(C)c1ccccc1CSC1=NC(C)(C)C(=S)N1 [Example 39, 2-(2-dimethylaminobenzylthio)-5,5-dimethylimidazolin-4-thione] | ≥ 2000

tested on: hydrochloric acid.ethanol-induced gastric ulcer; assay: Inhibitory effect on hydrochloric acid.ethanol-induced gastric ulcer; type: in vivo; settings: Rattus norvegicus, 1 h, male SD rats, oral, 30 min before 98% ethanol containing 200 mM hydrochloric acid, read-out: Inhibitory Percent (ulcer inhibitory percent)
Protocol: Male SD rats of 7-week age were fasted for 24 hours, with a fast of water beginning in early morning of the day when the experiments were performed. The rats were classified into groups each consisting of five rats, such that all the groups have substantially the same average weight. Before giving hydrochloric acid.ethanol to the rats, the compounds of the Examples indicated in TABLE 2 were orally administered as specimen drugs to the rats, with a dose of 30 mg/kg. Thirty minutes later, 1 mL of 98% ethanol containing 200 mM of hydrochloric acid was orally administered to each specimen rat. One hour later, the specimen rats were sacrificed by ether, and the mucosa of the stomach of each rat was semi-fixed with 2% formalin. The longitudinal length of the damaged area of the gastric mucosa was measured, and the anti-ulcer percent values of the individual specimen drugs were calculated on the basis of the sum of the measured length values of each group of the specimen rats, in the same manner as in Example 68.

Row | SMILES | inhibition in vivo at 30 mg/kg [%]
2 | O=C1CN=C(SCc2ccccn2)N1 [Example 1, 2-(2-pyridylmethylthio)imidazolin-4-one] | 71.9
3 | CC1(C)N=C(SCc2ccccn2)NC1=O [Example 8, 2-(2-pyridylmethylthio)-5,5-dimethylimidazolin-4-one] | 93
4 | CC1N=C(SCc2ccccn2)NC1=O (centres unmarked) [Example 9, 2-(2-pyridylmethylthio)-5-methylimidazolin-4-one] | 94.9
5 | CC(C)CN(C)c1ccccc1CSC1=NC(C)(C)C(=O)N1 [Example 21, 2-(2-N-isobutyl-N-methylaminobenzylthio)-5,5-dimethylimidazolin-4-one] | 99.6
6 | CN(C)c1ccccc1CSC1=NC(Cc2ccccc2)C(=O)N1 (centres unmarked) [Example 23, 2-(2-dimethylaminobenzylthio)-5-benzylimidazolin-4-one] | 83.6
7 | CCCCC1(CC)N=C(SCc2ccccc2N(C)C)NC1=O (centres unmarked) [Example 29, 2-(2-dimethylaminobenzylthio)-5-butyl-5-ethylimidazolin-4-one] | 69.5
8 | CCC1(C)C(=O)N=C(SCc2ccccc2N(C)C)N1C(C)=O (centres unmarked) [Example 34, 1-N-acetyl-2-(2-dimethylaminobenzylthio)-5-ethyl-5-methyl-2-imidazolin-4-one] | 52
9 | CN(C)c1ccccc1CSC1=NC(C)(c2ccccc2)C(=S)N1 (centres unmarked) [Example 41, 2-(2-dimethylaminobenzylthio)-5-phenyl-5-methylimidazolin-4-thione] | 74.5

same assay, conditions: male SD rats, oral, 30 mg/kg, 30 min before 98% ethanol containing 200 mM hydrochloric acid

Row | SMILES | Inhibitory Percent (ulcer inhibitory percent) [%]
10 | CN(C)c1ccccc1CSC1=NC(=O)/C(=C\c2ccccc2)N1 [Example 18, 2-(2-dimethylaminobenzylthio)-5-trans-benzylideneimidazolin-4-one] | 37.4

tested on: water-immersion restraint stress-induced gastric ulcer; assay: Inhibitory effect on water-immersion restraint stress-induced gastric ulcer; type: in vivo; settings: male SD rats, oral, 10 mg/kg, 7 h water-immersion restraint stress
Protocol: Male 7-week SD rats were fasted for 24 hours, with a fast of water beginning in early morning of the day when the experiments were performed. The rats were classified into groups each consisting of five rats, such that all the groups have substantially the same average weight. Before giving a stress to the rats, the compounds of the Examples indicated in TABLE 1 were orally administered as specimen drugs to the rats, with a dose of 10 mg/kg. The rats were then kept in stress cages, and were given a stress by immersing the cages in a water bath kept at a substantially constant temperature of 23°±1° C., such that the water level was at the height of the xiphoid of the rats. Seven hours later, the specimen rats were sacrificed by ether, and the mucosa of the stomach of each rat was semi-fixed with 2% formalin. The longitudinal length of the damaged area of the gastric mucosa was measured. A sum of the measured length values of the rats of each group was calculated as an ulcer index. An anti-ulcer or ulcer inhibitory percent (%) was calculated as {1-(ulcer index of each group of specimen rats)/(ulcer index of non-specimen group)}×100.

Row | SMILES | Inhibitory Percent (ulcer inhibitory percent) [%]
11 | O=C1N=C(SCc2ccccn2)N/C1=C/c1ccccc1 [Example 4, 2-(2-pyridylmethylthio)-5-trans-benzylideneimidazolin-4-one] | 63.3
12 | C=C1NC(SCc2ccccn2)=NC1=O [Example 5, 2-(2-pyridylmethylthio)-5-trans-methylideneimidazolin-4-one] | 23.3
13 | CCC1(c2ccccc2)N=C(SCc2ccccn2)NC1=O (centres unmarked) [Example 13, 2-(2-pyridylmethylthio)-5-ethyl-5-phenylimidazolin-4-one] | 46.3
14 | CN(C)c1ccccc1CSC1=NC(C)(C)C(=O)N1 [Example 16, 2-(2-dimethylaminobenzylthio)-5,5-dimethylimidazolin-4-one] | 82.4
15 | CN(C)c1ccccc1CSC1=NC(=O)/C(=C\c2ccccc2)N1 [Example 18, 2-(2-dimethylaminobenzylthio)-5-trans-benzylideneimidazolin-4-one] | 34.1
16 | CC1N=C(SCc2ccccc2N(C)C)NC1=O (centres unmarked) [Example 22, 2-(2-dimethylaminobenzylthio)-5-methylimidazolin-4-one] | 48.9
17 | CCC1(CC)N=C(SCc2ccccc2N(C)C)NC1=O [Example 28, 2-(2-dimethylaminobenzylthio)-5,5-diethylimidazolin-4-one] | 73.8
18 | CN1C(=O)C(C)(C)N=C1SCc1ccccc1N(C)C [Example 35, 1-N-methyl-2-(2-dimethylaminobenzylthio)-4,4-dimethyl-2-imidazolin-5-one] | 30.6
19 | CC1(C)N=C(SCc2cccc3cccnc23)NC1=S [Example 44, 2-(8-quinolynylmethylthio)-5,5-dimethylimidazolin-4-thione] | 28.8

tested on: acetic acid-induced gastric ulcer; assay: Healing effect on acetic acid-induced gastric ulcer of rat; type: in vivo; settings: male Donryu rat, oral, 50 mg/kg two times a day, 10 consecutive days; ulcer surface area
Protocol: A male Donryu rat of 7-week age was subjected to abdominal incision to expose the stomach, with pentobarbital used as an anesthesia. Using a metal ring having an inside diameter of 10 mm, 200 μL of glacial acetic acid was applied for contact with a serosa-side part of a boundary area between the antrum and the corpus body. The abdomen of the specimen rat subjected to the glacial acetic acid was closed by an operation, and the rat was then fed in a normal way. The compound obtained in Example 16 was orally administered as a specimen drug to the specimen rat two times a day (at 9:00 a.m. and 5:00 p.m.), each time with a dose of 50 mg/kg, beginning on the day following the day on which the glacial acetic acid was applied to the rat. The oral administration continued for 10 consecutive days, with a total of 20 administrations. On the day following the last day of administration, the specimen rat was sacrificed with ether, and the ulcer portion of the rat was fixed with formalin. The surface area of the ulcer portion was measured. The healing percent (%) calculated on the basis of the measured surface area was 28.9%.

Row | SMILES | healing percent [%]
20 | CN(C)c1ccccc1CSC1=NC(C)(C)C(=O)N1 [Example 16, 2-(2-dimethylaminobenzylthio)-5,5-dimethylimidazolin-4-one] | 28.9
